{"source": "ChEMBL document CHEMBL3351779", "about": "“New tetracyclic tacrine analogs containing pyrano[2,3-c]pyrazole: efficient synthesis, biological assessment and docking simulation study” (Eur J Med Chem, 2015)", "key": {"Cholinesterase": {"target": "Cholinesterase (Equus caballus, UniProt P81908)", "sequence (P81908 whole entry)": "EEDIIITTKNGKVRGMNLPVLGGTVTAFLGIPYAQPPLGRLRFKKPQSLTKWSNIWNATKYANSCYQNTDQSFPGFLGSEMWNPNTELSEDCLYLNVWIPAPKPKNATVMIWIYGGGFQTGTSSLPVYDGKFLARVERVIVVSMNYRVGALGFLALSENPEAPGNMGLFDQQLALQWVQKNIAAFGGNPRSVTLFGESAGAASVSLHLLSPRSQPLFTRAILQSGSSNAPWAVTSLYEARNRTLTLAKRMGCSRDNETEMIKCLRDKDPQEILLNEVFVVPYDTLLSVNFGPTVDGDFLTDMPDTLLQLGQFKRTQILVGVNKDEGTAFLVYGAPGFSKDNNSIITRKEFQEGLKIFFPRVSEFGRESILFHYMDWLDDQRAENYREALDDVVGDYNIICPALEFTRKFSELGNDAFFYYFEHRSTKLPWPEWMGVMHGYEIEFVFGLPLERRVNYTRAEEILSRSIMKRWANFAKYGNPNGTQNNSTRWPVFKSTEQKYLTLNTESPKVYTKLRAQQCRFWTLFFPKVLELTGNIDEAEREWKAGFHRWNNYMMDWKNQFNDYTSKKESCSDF", "description": "Inhibition of equine serum BuChE using butylthiocholine iodide as substrate preincubated for 10 mins followed by substrate addition by Ellman's method"}, "Acetylcholinesterase [1]": {"target": "T1, Acetylcholinesterase (Electrophorus electricus, UniProt O42275)", "T1 sequence (O42275 whole entry)": "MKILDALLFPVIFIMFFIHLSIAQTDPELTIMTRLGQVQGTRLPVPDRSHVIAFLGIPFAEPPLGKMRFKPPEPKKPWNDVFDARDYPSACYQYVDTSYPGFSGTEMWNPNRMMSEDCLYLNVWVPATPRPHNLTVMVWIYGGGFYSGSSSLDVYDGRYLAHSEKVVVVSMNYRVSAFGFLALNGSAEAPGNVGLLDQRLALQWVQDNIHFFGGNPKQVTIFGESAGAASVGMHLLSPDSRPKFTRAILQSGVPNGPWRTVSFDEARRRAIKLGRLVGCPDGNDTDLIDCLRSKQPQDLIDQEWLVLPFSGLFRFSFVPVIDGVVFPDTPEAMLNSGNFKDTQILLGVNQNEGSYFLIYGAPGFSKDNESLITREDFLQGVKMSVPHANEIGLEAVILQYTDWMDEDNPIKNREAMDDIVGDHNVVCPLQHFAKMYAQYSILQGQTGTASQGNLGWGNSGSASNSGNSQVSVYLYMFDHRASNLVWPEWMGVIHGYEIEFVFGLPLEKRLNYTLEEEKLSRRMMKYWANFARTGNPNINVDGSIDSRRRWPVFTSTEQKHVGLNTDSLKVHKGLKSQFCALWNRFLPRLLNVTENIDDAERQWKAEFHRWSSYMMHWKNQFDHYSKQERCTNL", "description": "Inhibition of electric eel AChE using acetylthiocholine iodide as substrate preincubated for 10 mins followed by substrate addition by Ellman's method"}, "Acetylcholinesterase [2]": {"target": "T1, Acetylcholinesterase", "assay": "Inhibition of electric eel AChE by Lineweaver-Burk plot"}, "[3]": {"assay": "Neuroprotective activity against H2O2-induced cell death in rat PC12 cells assessed as cell viability at 10 uM after 24 hrs by MTT assay relative to control", "format": "functional", "details": "PC-12, 24 h, read-out: Activity"}}, "data": [{"smiles": "Cc1[nH]nc2c1C(c1ccccc1F)c1c(nc3c(c1N)CCCC3)O2", "note": "(racemic)", "values": [{"measurement": "IC50", "setting": "Cholinesterase", "value": 33000, "unit": "nM"}, {"measurement": "IC50", "setting": "Acetylcholinesterase [1]", "value": 590, "unit": "nM"}]}, {"smiles": "COc1ccc(OC)c(C2c3c(n[nH]c3C)Oc3nc4c(c(N)c32)CCCC4)c1", "note": "(racemic)", "values": [{"measurement": "IC50", "setting": "Cholinesterase", "value": "> 100000", "unit": "nM"}, {"measurement": "IC50", "setting": "Acetylcholinesterase [1]", "value": 500, "unit": "nM"}]}, {"smiles": "COc1ccc(C2c3c(n[nH]c3C)Oc3nc4c(c(N)c32)CCCC4)cc1OC", "note": "(racemic)", "values": [{"measurement": "Ki", "setting": "Acetylcholinesterase [2]", "value": 490, "unit": "nM"}, {"measurement": "viability at 10 µM", "setting": "[3]", "value": 48.4, "unit": "%"}, {"measurement": "IC50", "setting": "Cholinesterase", "value": "> 100000", "unit": "nM"}, {"measurement": "IC50", "setting": "Acetylcholinesterase [1]", "value": 190, "unit": "nM"}]}, {"smiles": "Cc1[nH]nc2c1C(c1cccc([N+](=O)[O-])c1)c1c(nc3c(c1N)CCCC3)O2", "note": "(racemic)", "values": [{"measurement": "IC50", "setting": "Cholinesterase", "value": "> 100000", "unit": "nM"}, {"measurement": "IC50", "setting": "Acetylcholinesterase [1]", "value": 3270, "unit": "nM"}]}, {"smiles": "COc1ccc(C2c3c(n[nH]c3C)Oc3nc4c(c(N)c32)CCCC4)cc1", "note": "(racemic)", "values": [{"measurement": "IC50", "setting": "Cholinesterase", "value": "> 100000", "unit": "nM"}, {"measurement": "IC50", "setting": "Acetylcholinesterase [1]", "value": 310, "unit": "nM"}]}, {"smiles": "COc1ccccc1C1c2c(n[nH]c2C)Oc2nc3c(c(N)c21)CCCC3", "note": "(racemic)", "values": [{"measurement": "IC50", "setting": "Cholinesterase", "value": "> 100000", "unit": "nM"}, {"measurement": "IC50", "setting": "Acetylcholinesterase [1]", "value": "> 10000", "unit": "nM"}]}, {"smiles": "O=c1c(O)c(-c2ccc(O)c(O)c2)oc2cc(O)cc(O)c12", "note": "[QUERCETIN]", "values": [{"measurement": "viability at 10 µM", "setting": "[3]", "value": 51.6, "unit": "%"}]}, {"smiles": "Cc1ccc(C2c3c(n[nH]c3C)Oc3nc4c(c(N)c32)CCCC4)cc1", "note": "(racemic)", "values": [{"measurement": "IC50", "setting": "Cholinesterase", "value": 4500, "unit": "nM"}, {"measurement": "IC50", "setting": "Acetylcholinesterase [1]", "value": 750, "unit": "nM"}]}, {"smiles": "Cc1[nH]nc2c1C(c1cccc3ccccc13)c1c(nc3c(c1N)CCCC3)O2", "note": "(racemic)", "values": [{"measurement": "IC50", "setting": "Cholinesterase", "value": 15000, "unit": "nM"}, {"measurement": "IC50", "setting": "Acetylcholinesterase [1]", "value": 320, "unit": "nM"}]}, {"smiles": "Cc1[nH]nc2c1C(c1cccc(Cl)c1Cl)c1c(nc3c(c1N)CCCC3)O2", "note": "(racemic)", "values": [{"measurement": "IC50", "setting": "Cholinesterase", "value": "> 100000", "unit": "nM"}, {"measurement": "IC50", "setting": "Acetylcholinesterase [1]", "value": 870, "unit": "nM"}]}, {"smiles": "COc1cc(C2c3c(n[nH]c3C)Oc3nc4c(c(N)c32)CCCC4)cc(OC)c1OC", "note": "(racemic)", "values": [{"measurement": "IC50", "setting": "Cholinesterase", "value": "> 100000", "unit": "nM"}, {"measurement": "IC50", "setting": "Acetylcholinesterase [1]", "value": 2180, "unit": "nM"}]}, {"smiles": "Cc1[nH]nc2c1C(c1ccc(F)cc1)c1c(nc3c(c1N)CCCC3)O2", "note": "(racemic)", "values": [{"measurement": "IC50", "setting": "Cholinesterase", "value": 25000, "unit": "nM"}, {"measurement": "IC50", "setting": "Acetylcholinesterase [1]", "value": 810, "unit": "nM"}]}, {"smiles": "Cc1[nH]nc2c1C(c1cccs1)c1c(nc3c(c1N)CCCC3)O2", "note": "(racemic)", "values": [{"measurement": "IC50", "setting": "Cholinesterase", "value": 16000, "unit": "nM"}, {"measurement": "IC50", "setting": "Acetylcholinesterase [1]", "value": 720, "unit": "nM"}]}]}
